# Key:
# Conditions in all cases: treatment: drug + dasatinib (fixed dose, not stated); 5 days
# TK-10 [1] = assay: AUC of dose-response viability curve, drug + dasatinib, normalised to DMSO (arbitrary (AUC of normalised viability)); higher = less growth inhibition
# Procedure: (§1)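 Primary HTS combination arm: 8 RCC cell lines treated with 8 doses (up to 10 uM) of each library drug plus a fixed dose of dasatinib (dose not stated) for 5 days; viability read by CellTiter-Glo and normalised to DMSO. GI50 was fitted with XLfit, AUC is the area under the dose-response curve, and minimum viability is the lowest fraction of DMSO viability across doses.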
# ACHN [2] = assay: as above
# Procedure: as §1
# UO-31 [3] = assay: as above
# Procedure: as §1
# CAKI-1 [4] = assay: as above
# Procedure: as §1
# SN12C [5] = assay: as above
# Procedure: as §1
# 786-O [6] = assay: as above
# Procedure: as §1
# A498 [7] = assay: as above
# Procedure: as §1
# 769-P [8] = assay: as above
# Procedure: as §1
# TK-10 [9] = assay: GI50 of drug in presence of dasatinib; higher = less potent
# Procedure: as §1
# ACHN [10] = assay: as above
# Procedure: as §1
# UO-31 [11] = assay: as above
# Procedure: as §1
# CAKI-1 [12] = assay: as above
# Procedure: as §1
# SN12C [13] = assay: as above
# Procedure: as §1
# 786-O [14] = assay: as above
# Procedure: as §1
# A498 [15] = assay: as above
# Procedure: as §1
# 769-P [16] = assay: as above
# Procedure: as §1
# TK-10 [17] = assay: minimum viability across doses, drug + dasatinib, relative to DMSO (fraction); higher = less growth inhibition
# Procedure: as §1
# ACHN [18] = assay: as above
# Procedure: as §1
# UO-31 [19] = assay: as above
# Procedure: as §1
# CAKI-1 [20] = assay: as above
# Procedure: as §1
# SN12C [21] = assay: as above
# Procedure: as §1
# 786-O [22] = assay: as above
# Procedure: as §1
# A498 [23] = assay: as above
# Procedure: as §1
# 769-P [24] = assay: as above
# Procedure: as §1
Structure (SMILES),AUC of dose-response viability curve (TK-10 [1]),AUC of dose-response viability curve (ACHN [2]),AUC of dose-response viability curve (UO-31 [3]),AUC of dose-response viability curve (CAKI-1 [4]),AUC of dose-response viability curve (SN12C [5]),AUC of dose-response viability curve (786-O [6]),AUC of dose-response viability curve (A498 [7]),AUC of dose-response viability curve (769-P [8]),GI50 of drug (TK-10 [9]) [nM],GI50 of drug (ACHN [10]) [nM],GI50 of drug (UO-31 [11]) [nM],GI50 of drug (CAKI-1 [12]) [nM],GI50 of drug (SN12C [13]) [nM],GI50 of drug (786-O [14]) [nM],GI50 of drug (A498 [15]) [µM],GI50 of drug (769-P [16]) [nM],minimum viability across doses (TK-10 [17]),minimum viability across doses (ACHN [18]),minimum viability across doses (UO-31 [19]),minimum viability across doses (CAKI-1 [20]),minimum viability across doses (SN12C [21]),minimum viability across doses (786-O [22]),minimum viability across doses (A498 [23]),minimum viability across doses (769-P [24])
CCCS(=O)(=O)Nc1ccc(F)c(C(=O)c2c[nH]c3ncc(-c4ccc(Cl)cc4)cc23)c1F [Vemurafenib (PLX4032)] + Cc1nc(Nc2ncc(C(=O)Nc3c(C)cccc3Cl)s2)cc(N2CCN(CCO)CC2)n1 [dasatinib],2.4,2.05,3.4,2.39,2.62,2.11,3.37,2,9220,5760,> 10000,> 10000,> 10000,3840,> 10,> 10000,0.6,0.403,0.853,0.57,0.719,0.326,0.838,0.618
c1cncc(CN2CCC(n3ncc4c(N5CCOCC5)nc(-c5ccc6[nH]ccc6c5)nc43)CC2)c1 [WAY-600] + Cc1nc(Nc2ncc(C(=O)Nc3c(C)cccc3Cl)s2)cc(N2CCN(CCO)CC2)n1 [dasatinib],1.83,1.39,2.62,1.63,1.85,1.56,3.1,1.93,433,91.2,1100,306,523,524,4.49,688,0.045,0.0438,0.0101,0.0191,0.119,0.00323,0.0551,0.0156
COc1cc2ncnc(Nc3ccc(O)c(Br)c3)c2cc1OC [WHI-P154] + Cc1nc(Nc2ncc(C(=O)Nc3c(C)cccc3Cl)s2)cc(N2CCN(CCO)CC2)n1 [dasatinib],2.16,1.42,5.45,2.26,2.51,2.26,3.93,2.22,1920,33.7,> 10000,2980,> 10000,> 10000,> 10,2580,0.422,0.218,1.22,0.211,0.603,0.547,0.937,0.348
C[C@H](NC(=O)/C(C#N)=C/c1cccc(Br)n1)c1ccccc1 [WP1066] + Cc1nc(Nc2ncc(C(=O)Nc3c(C)cccc3Cl)s2)cc(N2CCN(CCO)CC2)n1 [dasatinib],2.77,1.48,4.08,2.28,2.36,2.35,3.03,2.49,> 10000,8.56,7910,3970,> 10000,4310,> 10,3930,0.713,0.0689,0.00793,0.285,0.385,0.0254,0.638,0.0555
CCC[C@H](NC(=O)/C(C#N)=C/c1cccc(Br)n1)c1ccccc1 [WP1130] + Cc1nc(Nc2ncc(C(=O)Nc3c(C)cccc3Cl)s2)cc(N2CCN(CCO)CC2)n1 [dasatinib],2.43,1.95,3.53,2.12,2.37,1.79,2.69,2.25,4750,4370,4240,2190,3930,279,4.1,3100,0.191,0.00233,0.0123,0.0305,0.00838,0.00681,0.02,0.0169
COC(=O)Nc1ccc(-c2nc(N3CCOCC3)c3cnn(C4CCN(C(=O)OC)CC4)c3n2)cc1 [WYE-354] + Cc1nc(Nc2ncc(C(=O)Nc3c(C)cccc3Cl)s2)cc(N2CCN(CCO)CC2)n1 [dasatinib],1.83,1.33,2.63,1.71,2.08,1.76,2.63,1.84,329,74.7,894,345,800,381,1.98,457,0.208,0.0892,0.019,0.0632,0.215,0.307,0.262,0.122
COC(=O)Nc1ccc(-c2nc(N3CCOCC3)c3cnn(C4CCN(Cc5cccnc5)CC4)c3n2)cc1 [WYE-687] + Cc1nc(Nc2ncc(C(=O)Nc3c(C)cccc3Cl)s2)cc(N2CCN(CCO)CC2)n1 [dasatinib],1.79,1.38,2.8,1.51,1.78,2.02,2.89,1.81,231,83.3,572,153,414,618,2.28,481,0.058,0.0388,0.00676,0.0365,0.13,0.212,0.251,0.074

# Source: the supplement of paper PMC8149375
